The results in this text go back to PMC5745756, “N,N-disubstituted azines attenuate LPS-mediated neuroinflammation in microglia and neuronal apoptosis via inhibiting MAPK signaling pathways” (BMC Neuroscience, 2017).

What all share (assay type): cell-based, murine
Series [1] deals with NO production in LPS-activated BV-2 cells. The series can be described thus: Nitrite (Griess) assay of NO production in LPS-activated BV-2 cells. The note with it: Mus musculus, read-out: IC50, concentration that caused 50% inhibition of NO production in LPS-activated BV-2 cells. As for the experimental part:
(§1) […] or MTT assay was performed as described by our previous publication with slight modification. In order to measure MTT and NO production, BV-2 cells were plated into a 96-well plate at a density of 4 × 10^4 cells/well. […] Then, nitrite (a soluble oxidation product of NO) was detected in the culture media by using the Griess reaction. The supernatant (50 µL) was collected and mixed with an equal volume of Griess reagent (1% sulfanilamide in phosphoric acid and 0.1% N-1-napthylethylenediamine dihydrochloride). The absorbance was measured at 570 nm by using a microplate reader. Sodium nitrite was used to create a standard curve from which the NO2 concentration was calculated. The cell viability was evaluated by spectrophotometrically measuring the reduction of yellow 3-[4,5-dimethylthiazol-2-yl]-2,5-diphenyltetrazolium bromide (MTT) to purple formazan crystals. MTT was dissolved in DMEM, added to the culture plate containing cells at a final concentration of 0.5 mg/mL, and incubated for 1 h. The medium containing the MTT solution was carefully removed, and 200 µL DMSO was added to each well. After solubilizing the stained cells to produce a formazan-colored solution, the optical density (OD) was measured on a microplate reader at 570 nm, and the results were expressed as a percentage of the LPS-treated group. The same plate was used for the NO and MTT assays. The cell supernatant was used for the NO assay, and the plated cells were used for the MTT assay.
(§2) The NO production and cell viability of LPS-activated BV-2 cells were measured after treatment with azine derivatives using Griess reagent and MTT assay, respectively.
For orientation: The Griess reaction detects nitrite, a stable product of nitric oxide.

A short description of series [2]: MTT cell viability of LPS-activated BV-2 cells. The note with it: mouse, LPS-activated BV-2 microglial cells; 20 µM compound; percentage of the LPS-only treatment group; mean ± standard deviation, three experiments. As for the experimental part:
as §1, §2

Series [3] has as its system BV-2 cells. As to the kind of experiment: MTT cell viability of LPS-activated BV-2 cells. As for the experimental part:
as §1, §2

Setting [4] is: BV-2, 100 ng/mL LPS, 24 h, Griess reaction.

Molecules are shown by their SMILES. Where two headings read alike, the source gives them in different places. Where only a bound is given, the exact number is not on record here.

As a reminder, the viability is a per cent measure of how many cells are alive, often set against a control. The low end stands for a greater loss of cells, the high end for better survival. As to `COc1ccc(/C=C/C=NN=C/C=C/c2ccc(OC)cc2)cc1` [Compound 1, 1,2-Bis((E)-3-(4-methoxyphenyl)allylidene)hydrazine], the IC50 in series [1] (setting [4]) came out at 58.5 µM. In series [2], this compound gave a viability at 24 h, 20 µM of 90.3 ± 9.37%.
`C/C(C=NN=C/C(C)=C/c1ccccc1)=C\c1ccccc1` [Compound 2, 1,2-Bis((E)-2-methyl-3-phenylallylidene)hydrazine]: the IC50 in series [1] (setting [4]) was determined as 50.1 µM. Further, in series [2], the viability at 24 h, 20 µM worked out at 96.6 ± 1.75%.
Consider `C(=NN=Cc1cnc2ccccc2c1)c1cnc2ccccc2c1` [Compound 4, 1,2-Bis(quinolin-3-ylmethylene)hydrazine], for which the IC50 in series [1] (setting [4]) was more than 500 µM. The viability at 24 h, 20 µM in series [2] amounted to 91 ± 3.39%.
In the case of `O=[N+]([O-])c1ccccc1/C=C/C=NN=C/C=C/c1ccccc1[N+](=O)[O-]` [Compound 6, 1,2-Bis((E)-3-(2-nitrophenyl)allylidene)hydrazine], the IC50 in series [1] (BV-2, 24 h) worked out at 47.4 µM. For the same compound, in series [2], the viability at 24 h, 20 µM turned out to be 87.9 ± 19.5%.
With `Clc1ccc(/C=C/C=NN=C/C=C/c2ccc(Cl)cc2)cc1` [Compound 7, 1,2-Bis((E)-3-(4-chlorophenyl)allylidene)hydrazine], the IC50 in series [1] (setting [4]) was 39.9 µM. This compound also came in with a viability at 24 h, 20 µM in series [2] of 77.2 ± 5.67%. Moreover, in series [3], the “Toxicity in BV-2 cells (discussion)” value is recorded as “high toxicity”.
As to `C(C=C(c1ccccc1)c1ccccc1)=NN=CC=C(c1ccccc1)c1ccccc1` [Compound 8, 1,2-Bis(3,3-diphenylallylidene)hydrazine], the IC50 in series [1] (setting [4]) was 47.9 µM. In series [2], the viability at 24 h, 20 µM is 69.5 ± 3.25%. Besides, the “Toxicity in BV-2 cells (discussion)” value in series [3] is reported as “high toxicity”.
As for `C(=NN=Cc1ccc(N(c2ccccc2)c2ccccc2)cc1)c1ccc(N(c2ccccc2)c2ccccc2)cc1` [Compound 9, 4,4′-Hydrazine-1,2-diylidenebis(methan-1-yl-1-ylidene)bis(N,N-diphenylaniline)], the IC50 in series [1] (setting [4]) came out at 26.3 µM. The same compound returned a viability at 24 h, 20 µM in series [2] of 83.5 ± 7.78%.
On to `[H]/N=C(/NC)NCCC[C@H](N)C(=O)O` [L-NMMA, L-NG-monomethylarginine, reference compound], for which the IC50 in series [1] (setting [4]) worked out at 18.3 µM. In series [2], this compound had a viability at 24 h, 20 µM of 100 ± 3.41%.
